Test results: patent publication US10800741B2 (ANCUREALL PHARMACEUTICAL (SHANGHAI) CO., LTD., priority 2017, dated 2020)
Read-outs that look alike come from different tables or passages of the source.

Key:
Assay in all cases: KINOMEscan in vitro binding to 468 labeled protein kinases
protein kinases [1] = target: T1, protein kinases (Homo sapiens, UniProt O94804); conditions: LOK
T1 construct: purchased Discovery X company (USA), KINOMEscan screening platform
Procedure: (§1) Test Example 6 Determination of Binding Affinity of the Present Compounds on Protein Kinases In Vitro
(§2) KINOMEscan screening platform of Discovery X company (USA) was used to identify the binding targets of the present compounds to protein kinases. Compound 66 of the present invention was dissolved in DMSO (Sigma Aldrich) at concentrations of 1000 nM, 10 nM and 1 nM, and then was subjected to in vitro binding reaction with 468 labeled protein kinases. Two samples were taken in parallel for each assay sample.
(§3) The lower the percentage of the test compound to the solvent control, the stronger the binding affinity of the test compound to the protein kinase in vitro.

protein kinases [2] = target: T2, protein kinases (Homo sapiens, UniProt P00519, F317I); conditions: read-out: Test compound/solvent control (%); for remaining binding at 0.001 µM: 1 nM; for remaining binding at 0.01 µM: 10 nM; for remaining binding at 1 µM: 1000 nM
T2 construct: purchased Discovery X company (USA), KINOMEscan screening platform
Procedure: as §1, §2, §3

protein kinases [3] = target: T3, protein kinases (Homo sapiens, UniProt P00533); conditions: EGFR
T3 construct: purchased Discovery X company (USA), KINOMEscan screening platform
Procedure: as §1, §2, §3

protein kinases [4] = target: T4, protein kinases (Homo sapiens, UniProt P00533, DEL746-750); conditions: EGFR(E746-A750de1)
T4 construct: purchased Discovery X company (USA), KINOMEscan screening platform
Procedure: as §1, §2, §3

protein kinases [5] = target: T5, protein kinases (Homo sapiens, UniProt P00533, G719C); conditions: EGFR(G719C)
T5 construct: purchased Discovery X company (USA), KINOMEscan screening platform
Procedure: as §1, §2, §3

protein kinases [6] = target: T6, protein kinases (Homo sapiens, UniProt P00533, G719S); conditions: EGFR(G719S)
T6 construct: purchased Discovery X company (USA), KINOMEscan screening platform
Procedure: as §1, §2, §3

protein kinases [7] = target: T7, protein kinases (Homo sapiens, UniProt P00533, L861Q); conditions: EGFR(L861Q)
T7 construct: purchased Discovery X company (USA), KINOMEscan screening platform
Procedure: as §1, §2, §3

protein kinases [8] = target: T8, protein kinases (Homo sapiens, UniProt P07949); conditions: RET, read-out: Test compound/solvent control (%)
T8 construct: purchased Discovery X company (USA), KINOMEscan screening platform
Procedure: as §1, §2, §3

protein kinases [9] = target: T9, protein kinases (Homo sapiens, UniProt P07949, V804L); conditions: RET(V804L), read-out: Test compound/solvent control (%)
T9 construct: purchased Discovery X company (USA), KINOMEscan screening platform
Procedure: as §1, §2, §3

protein kinases [10] = target: T10, protein kinases (Homo sapiens, UniProt P09619); conditions: PDGFRB, read-out: Test compound/solvent control (%)
T10 construct: purchased Discovery X company (USA), KINOMEscan screening platform
Procedure: as §1, §2, §3

protein kinases [11] = target: T11, protein kinases (Homo sapiens, UniProt P10721, A829P); conditions: KIT(A829P), read-out: Test compound/solvent control (%)
T11 construct: purchased Discovery X company (USA), KINOMEscan screening platform
Procedure: as §1, §2, §3

protein kinases [12] = target: T12, protein kinases (Homo sapiens, UniProt P10721, V559D); conditions: KIT(V559D), read-out: Test compound/solvent control (%)
T12 construct: purchased Discovery X company (USA), KINOMEscan screening platform
Procedure: as §1, §2, §3

protein kinases [13] = target: T13, protein kinases (Homo sapiens, UniProt P36888, N841I); conditions: FLT3(N841I), read-out: Test compound/solvent control (%)
T13 construct: purchased Discovery X company (USA), KINOMEscan screening platform
T13 sequence (P36888 27-993 N841I): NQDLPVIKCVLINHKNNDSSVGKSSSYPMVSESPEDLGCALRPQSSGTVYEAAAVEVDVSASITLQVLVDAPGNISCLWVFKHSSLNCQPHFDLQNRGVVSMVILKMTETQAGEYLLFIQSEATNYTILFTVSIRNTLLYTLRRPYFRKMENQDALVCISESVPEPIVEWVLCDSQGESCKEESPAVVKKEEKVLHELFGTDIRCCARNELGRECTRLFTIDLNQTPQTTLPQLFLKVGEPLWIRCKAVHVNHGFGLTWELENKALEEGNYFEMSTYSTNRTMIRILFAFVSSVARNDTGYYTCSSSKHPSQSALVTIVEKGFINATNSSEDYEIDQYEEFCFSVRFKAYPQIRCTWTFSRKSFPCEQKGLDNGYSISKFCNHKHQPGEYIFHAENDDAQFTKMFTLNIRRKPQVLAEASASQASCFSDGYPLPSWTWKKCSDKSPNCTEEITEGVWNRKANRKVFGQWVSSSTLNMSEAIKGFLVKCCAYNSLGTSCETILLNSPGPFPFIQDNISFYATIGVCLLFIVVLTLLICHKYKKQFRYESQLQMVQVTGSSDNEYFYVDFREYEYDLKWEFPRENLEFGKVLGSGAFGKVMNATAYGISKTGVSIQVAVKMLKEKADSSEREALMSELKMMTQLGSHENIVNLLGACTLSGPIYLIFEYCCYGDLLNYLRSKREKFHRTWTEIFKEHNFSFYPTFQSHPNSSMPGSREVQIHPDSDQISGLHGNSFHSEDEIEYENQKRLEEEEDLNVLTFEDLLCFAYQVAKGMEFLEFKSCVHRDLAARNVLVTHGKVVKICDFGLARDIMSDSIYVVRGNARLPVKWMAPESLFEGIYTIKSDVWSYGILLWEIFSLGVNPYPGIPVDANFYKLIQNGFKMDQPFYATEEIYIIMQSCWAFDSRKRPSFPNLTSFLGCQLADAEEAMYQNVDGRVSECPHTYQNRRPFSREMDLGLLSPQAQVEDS
Procedure: as §1, §2, §3

protein kinases [14] = target: T14, protein kinases (Homo sapiens, UniProt Q9UKE5); conditions: TNIK, read-out: Test compound/solvent control (%)
T14 construct: purchased Discovery X company (USA), KINOMEscan screening platform
Procedure: as §1, §2, §3

T1 sequence (O94804 whole entry): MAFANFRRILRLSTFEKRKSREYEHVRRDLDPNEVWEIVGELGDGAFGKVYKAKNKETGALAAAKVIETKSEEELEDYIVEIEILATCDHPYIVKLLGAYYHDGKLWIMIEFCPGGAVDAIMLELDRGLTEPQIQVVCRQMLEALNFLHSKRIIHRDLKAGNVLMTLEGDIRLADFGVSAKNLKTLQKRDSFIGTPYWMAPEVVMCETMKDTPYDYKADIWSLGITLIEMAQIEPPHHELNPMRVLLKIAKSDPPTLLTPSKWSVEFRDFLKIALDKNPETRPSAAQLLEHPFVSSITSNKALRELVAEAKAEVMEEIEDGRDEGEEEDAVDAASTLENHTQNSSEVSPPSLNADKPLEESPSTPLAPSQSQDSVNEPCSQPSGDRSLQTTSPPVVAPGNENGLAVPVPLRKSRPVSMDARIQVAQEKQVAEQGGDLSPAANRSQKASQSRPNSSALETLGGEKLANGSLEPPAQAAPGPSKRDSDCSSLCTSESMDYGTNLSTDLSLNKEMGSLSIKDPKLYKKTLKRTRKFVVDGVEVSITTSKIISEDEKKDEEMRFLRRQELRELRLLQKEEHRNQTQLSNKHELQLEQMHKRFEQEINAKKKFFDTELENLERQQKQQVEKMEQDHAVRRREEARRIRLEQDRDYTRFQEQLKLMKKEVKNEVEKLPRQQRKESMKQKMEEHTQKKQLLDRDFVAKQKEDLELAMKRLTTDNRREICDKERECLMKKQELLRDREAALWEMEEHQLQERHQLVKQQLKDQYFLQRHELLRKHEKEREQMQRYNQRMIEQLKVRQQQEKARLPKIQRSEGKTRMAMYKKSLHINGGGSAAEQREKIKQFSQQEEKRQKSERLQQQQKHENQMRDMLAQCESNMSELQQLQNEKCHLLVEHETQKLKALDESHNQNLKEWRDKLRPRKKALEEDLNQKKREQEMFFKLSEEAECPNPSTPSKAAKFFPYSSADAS
T3 sequence (P00533 25-1210): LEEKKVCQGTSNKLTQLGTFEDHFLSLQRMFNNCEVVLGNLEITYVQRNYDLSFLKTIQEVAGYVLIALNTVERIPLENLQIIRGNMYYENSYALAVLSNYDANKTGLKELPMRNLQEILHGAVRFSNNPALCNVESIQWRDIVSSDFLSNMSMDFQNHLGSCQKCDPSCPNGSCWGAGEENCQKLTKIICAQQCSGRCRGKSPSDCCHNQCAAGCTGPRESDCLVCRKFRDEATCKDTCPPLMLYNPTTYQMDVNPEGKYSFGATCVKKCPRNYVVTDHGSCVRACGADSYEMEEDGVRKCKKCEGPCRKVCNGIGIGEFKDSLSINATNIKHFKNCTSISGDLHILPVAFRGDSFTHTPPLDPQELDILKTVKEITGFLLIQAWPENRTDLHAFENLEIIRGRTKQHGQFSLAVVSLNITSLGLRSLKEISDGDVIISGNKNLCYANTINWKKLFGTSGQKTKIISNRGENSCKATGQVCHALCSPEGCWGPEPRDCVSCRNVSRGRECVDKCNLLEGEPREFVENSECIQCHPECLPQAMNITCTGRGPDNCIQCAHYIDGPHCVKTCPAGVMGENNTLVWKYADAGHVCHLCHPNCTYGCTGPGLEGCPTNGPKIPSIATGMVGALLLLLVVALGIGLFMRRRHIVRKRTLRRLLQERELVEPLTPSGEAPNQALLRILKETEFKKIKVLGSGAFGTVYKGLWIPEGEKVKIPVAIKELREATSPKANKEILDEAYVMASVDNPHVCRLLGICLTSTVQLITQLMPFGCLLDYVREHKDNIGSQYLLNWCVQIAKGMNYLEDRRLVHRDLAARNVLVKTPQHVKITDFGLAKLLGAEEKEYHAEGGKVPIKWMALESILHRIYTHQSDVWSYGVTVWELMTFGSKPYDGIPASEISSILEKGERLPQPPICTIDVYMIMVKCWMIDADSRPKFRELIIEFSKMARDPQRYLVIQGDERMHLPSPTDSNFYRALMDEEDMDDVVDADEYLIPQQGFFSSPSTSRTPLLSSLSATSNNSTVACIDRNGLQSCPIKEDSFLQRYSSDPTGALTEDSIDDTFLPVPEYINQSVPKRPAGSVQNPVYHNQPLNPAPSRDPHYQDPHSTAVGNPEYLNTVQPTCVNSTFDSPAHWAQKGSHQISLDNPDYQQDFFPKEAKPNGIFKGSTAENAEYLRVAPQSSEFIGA
T8 sequence (P07949 29-1114): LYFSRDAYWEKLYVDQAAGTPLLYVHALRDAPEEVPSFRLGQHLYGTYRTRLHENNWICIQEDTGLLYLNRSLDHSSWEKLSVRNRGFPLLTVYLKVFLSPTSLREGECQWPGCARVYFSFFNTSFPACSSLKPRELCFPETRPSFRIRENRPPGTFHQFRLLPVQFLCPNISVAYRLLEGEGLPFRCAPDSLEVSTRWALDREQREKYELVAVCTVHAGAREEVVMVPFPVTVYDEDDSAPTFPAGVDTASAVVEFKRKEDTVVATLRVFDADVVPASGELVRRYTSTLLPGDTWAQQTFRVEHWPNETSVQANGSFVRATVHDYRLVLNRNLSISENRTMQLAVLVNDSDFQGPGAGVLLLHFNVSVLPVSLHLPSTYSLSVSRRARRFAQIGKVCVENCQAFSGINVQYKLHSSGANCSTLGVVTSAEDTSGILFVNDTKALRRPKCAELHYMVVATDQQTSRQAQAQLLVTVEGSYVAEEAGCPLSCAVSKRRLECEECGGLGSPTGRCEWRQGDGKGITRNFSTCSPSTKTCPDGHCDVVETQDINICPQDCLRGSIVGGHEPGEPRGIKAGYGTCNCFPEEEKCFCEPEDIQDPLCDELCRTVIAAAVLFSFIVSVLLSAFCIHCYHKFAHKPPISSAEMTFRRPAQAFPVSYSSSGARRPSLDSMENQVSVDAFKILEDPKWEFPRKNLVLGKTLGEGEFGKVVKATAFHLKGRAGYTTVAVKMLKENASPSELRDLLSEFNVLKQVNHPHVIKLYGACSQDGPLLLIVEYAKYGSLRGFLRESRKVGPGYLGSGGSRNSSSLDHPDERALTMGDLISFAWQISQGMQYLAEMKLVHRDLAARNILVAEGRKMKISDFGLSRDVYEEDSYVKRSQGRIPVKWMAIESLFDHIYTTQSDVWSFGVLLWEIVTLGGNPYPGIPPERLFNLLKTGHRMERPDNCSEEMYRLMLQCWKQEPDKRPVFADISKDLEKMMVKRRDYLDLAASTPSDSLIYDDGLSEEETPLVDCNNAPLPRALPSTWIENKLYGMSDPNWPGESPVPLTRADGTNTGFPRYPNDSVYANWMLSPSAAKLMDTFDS
T7 sequence (P00533 25-1210 L861Q): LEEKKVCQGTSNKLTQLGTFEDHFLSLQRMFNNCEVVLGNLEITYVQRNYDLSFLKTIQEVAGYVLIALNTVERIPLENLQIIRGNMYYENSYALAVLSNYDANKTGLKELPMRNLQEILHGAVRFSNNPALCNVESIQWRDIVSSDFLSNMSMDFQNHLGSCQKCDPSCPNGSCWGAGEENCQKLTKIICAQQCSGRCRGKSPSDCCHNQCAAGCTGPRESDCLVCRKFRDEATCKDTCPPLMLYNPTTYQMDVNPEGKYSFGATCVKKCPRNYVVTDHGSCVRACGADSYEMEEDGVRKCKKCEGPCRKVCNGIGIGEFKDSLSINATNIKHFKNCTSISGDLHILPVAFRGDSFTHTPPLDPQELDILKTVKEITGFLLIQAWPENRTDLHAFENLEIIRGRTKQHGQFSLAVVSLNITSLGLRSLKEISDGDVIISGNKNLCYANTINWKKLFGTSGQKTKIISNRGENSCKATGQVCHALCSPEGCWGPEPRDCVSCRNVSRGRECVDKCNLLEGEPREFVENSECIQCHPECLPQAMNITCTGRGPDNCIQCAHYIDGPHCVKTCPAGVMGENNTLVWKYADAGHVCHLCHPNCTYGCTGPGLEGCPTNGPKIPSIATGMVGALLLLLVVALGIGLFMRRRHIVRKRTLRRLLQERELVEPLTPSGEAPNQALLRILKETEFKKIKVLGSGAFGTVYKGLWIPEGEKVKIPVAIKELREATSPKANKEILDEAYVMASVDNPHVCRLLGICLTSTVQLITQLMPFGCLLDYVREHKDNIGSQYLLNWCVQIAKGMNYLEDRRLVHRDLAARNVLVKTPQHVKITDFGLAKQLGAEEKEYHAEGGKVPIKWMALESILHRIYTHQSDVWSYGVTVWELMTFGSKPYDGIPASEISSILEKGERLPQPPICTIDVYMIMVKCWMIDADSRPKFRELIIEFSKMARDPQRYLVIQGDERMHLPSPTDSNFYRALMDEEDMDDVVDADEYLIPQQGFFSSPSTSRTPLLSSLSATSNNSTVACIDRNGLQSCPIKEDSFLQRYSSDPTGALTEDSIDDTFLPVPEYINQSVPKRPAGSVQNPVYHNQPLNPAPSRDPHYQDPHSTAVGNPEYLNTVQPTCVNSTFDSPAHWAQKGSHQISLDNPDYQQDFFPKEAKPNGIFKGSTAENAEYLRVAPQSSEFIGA
T9 sequence (P07949 29-1114 V804L): as the sequence (P07949 29-1114) above, with V776L counted along it

Question: With `COCCOc1cc2nccc(Oc3ccc(NC(=O)Nc4cc(C(C)(C)C)n[nH]4)c(Cl)c3)c2cc1NC(C)=O` [Compound 66, N-[4-{4-[3-(5-tert-butyl-2H-pyrazol-3-yl)-ureido]-3-chloro-phenoxy}-7-(2-methoxy-ethoxy)-quinolin-6-yl]-acetamide] as the compound, how does the “Test compound/solvent control (%)” value (protein kinases [1]; 1 nM) read?
Answer: 57%

Question: What about the “Test compound/solvent control (%)” value (protein kinases [1]; 10 nM) of the same compound?
Answer: 1.3%

Question: And the “Test compound/solvent control (%)” value (protein kinases [1]; 1000 nM)?
Answer: 0%

Question: What about the remaining binding at 0.001 µM (protein kinases [2]; ABL1(F317I)-phosphorylated) of the same compound?
Answer: 100%

Question: What about the remaining binding at 0.01 µM (protein kinases [2]; ABL1(F317I)-phosphorylated) of the same compound?
Answer: 31%

Question: And the remaining binding at 1 µM (protein kinases [2]; ABL1(F317I)-phosphorylated)?
Answer: 15%

Question: And the remaining binding at 0.001 µM (protein kinases [2]; ABL1(F317I)-unphosphorylated)?
Answer: 83%

Question: What about the remaining binding at 0.01 µM (protein kinases [2]; ABL1(F317I)-unphosphorylated) of the same compound?
Answer: 17%

Question: And the remaining binding at 1 µM (protein kinases [2]; ABL1(F317I)-unphosphorylated)?
Answer: 0.25%

Question: What about the “Test compound/solvent control (%)” value (protein kinases [3]; 1 nM) of the same compound?
Answer: 100%

Question: What about the “Test compound/solvent control (%)” value (protein kinases [3]; 10 nM) of the same compound?
Answer: 26%

Question: What about the “Test compound/solvent control (%)” value (protein kinases [3]; 1000 nM) of the same compound?
Answer: 0%

Question: What about the “Test compound/solvent control (%)” value (protein kinases [4]; 1 nM) of the same compound?
Answer: 60%

Question: And the “Test compound/solvent control (%)” value (protein kinases [4]; 10 nM)?
Answer: 18%

Question: What about the “Test compound/solvent control (%)” value (protein kinases [4]; 1000 nM) of the same compound?
Answer: 2.8%

Question: What about the “Test compound/solvent control (%)” value (protein kinases [5]; 1 nM) of the same compound?
Answer: 83%

Question: And the “Test compound/solvent control (%)” value (protein kinases [5]; 10 nM)?
Answer: 30%

Question: And the “Test compound/solvent control (%)” value (protein kinases [5]; 1000 nM)?
Answer: 0.2%

Question: And the “Test compound/solvent control (%)” value (protein kinases [6]; 1 nM)?
Answer: 77%

Question: What about the “Test compound/solvent control (%)” value (protein kinases [6]; 10 nM) of the same compound?
Answer: 18%

Question: What about the “Test compound/solvent control (%)” value (protein kinases [6]; 1000 nM) of the same compound?
Answer: 0%

Question: What about the “Test compound/solvent control (%)” value (protein kinases [7]; 1 nM) of the same compound?
Answer: 73%

Question: What about the “Test compound/solvent control (%)” value (protein kinases [7]; 10 nM) of the same compound?
Answer: 9.5%

Question: What about the “Test compound/solvent control (%)” value (protein kinases [7]; 1000 nM) of the same compound?
Answer: 0%

Question: And the remaining binding at 0.001 µM (protein kinases [8]; 1 nM)?
Answer: 85%

Question: What about the remaining binding at 0.01 µM (protein kinases [8]; 10 nM) of the same compound?
Answer: 17%

Question: And the remaining binding at 1 µM (protein kinases [8]; 1000 nM)?
Answer: 0%

Question: What about the remaining binding at 0.001 µM (protein kinases [9]; 1 nM) of the same compound?
Answer: 88%

Question: What about the remaining binding at 0.01 µM (protein kinases [9]; 10 nM) of the same compound?
Answer: 17%

Question: And the remaining binding at 1 µM (protein kinases [9]; 1000 nM)?
Answer: 0%

Question: And the remaining binding at 0.001 µM (protein kinases [10]; 1 nM)?
Answer: 81%

Question: And the remaining binding at 0.01 µM (protein kinases [10]; 10 nM)?
Answer: 6.2%

Question: And the remaining binding at 1 µM (protein kinases [10]; 1000 nM)?
Answer: 0%

Question: What about the remaining binding at 0.001 µM (protein kinases [11]; 1 nM) of the same compound?
Answer: 84%

Question: What about the remaining binding at 0.01 µM (protein kinases [11]; 10 nM) of the same compound?
Answer: 22%

Question: What about the remaining binding at 1 µM (protein kinases [11]; 1000 nM) of the same compound?
Answer: 0%

Question: What about the remaining binding at 0.001 µM (protein kinases [12]; 1 nM) of the same compound?
Answer: 82%

Question: And the remaining binding at 0.01 µM (protein kinases [12]; 10 nM)?
Answer: 18%

Question: And the remaining binding at 1 µM (protein kinases [12]; 1000 nM)?
Answer: 0%

Question: What about the remaining binding at 0.001 µM (protein kinases [13]; 1 nM) of the same compound?
Answer: 88%

Question: What about the remaining binding at 0.01 µM (protein kinases [13]; 10 nM) of the same compound?
Answer: 17%

Question: What about the remaining binding at 1 µM (protein kinases [13]; 1000 nM) of the same compound?
Answer: 0.25%

Question: And the remaining binding at 0.001 µM (protein kinases [14]; 1 nM)?
Answer: 44%

Question: What about the remaining binding at 0.01 µM (protein kinases [14]; 10 nM) of the same compound?
Answer: 6.4%

Question: And the remaining binding at 1 µM (protein kinases [14]; 1000 nM)?
Answer: 7%
